Values joined by “and” are separate entries in the source; they are usually repeats but may differ in a detail not shown here. Identical values can stand only once.
Test: mn = molality of the nth substance listed, in mol/kg
Conditions: 100 kPa, Liquid; for speed of sound: Frequency=3 MHz, Sing-around technique in a fixed-path interferometer; for mass density: Vibrating tube method

CN(C)C(=N)NC(=N)N.Cl [N,N-dimethylimidodicarbonimidic diamide hydrochloride] + O
Conditions | mass density, m1 = 0.03 [kg/m3] | mass density, m1 = 0.045 [kg/m3] | mass density, m1 = 0.06 [kg/m3] | mass density, m1 = 0.09 [kg/m3] | speed of sound, m1 = 0.03 [m/s] | speed of sound, m1 = 0.045 [m/s] | speed of sound, m1 = 0.06 | speed of sound, m1 = 0.09 [m/s]
305.15 K | 996.159 | 996.716 | 997.319 | 998.393 | 1516.5 | 1518 | 1519.3 m/s and 1519.3 m/s | 1522
310.15 K | 994.44 | 994.953 | 995.586 | 996.654 | 1526.3 | 1527.7 | 1529 m/s | 1531.5
315.15 K | 992.549 | 993.115 | 993.681 | 994.744 | 1534.4 | 1535.9 | 1537.2 m/s | 1539.6

C[C@@H](O)[C@H](N)C(=O)O [L-threonine] + O
Conditions | mass density, 305.15 K [kg/m3] | mass density, 310.15 K [kg/m3] | mass density, 315.15 K [kg/m3] | speed of sound, 305.15 K [m/s] | speed of sound, 310.15 K [m/s] | speed of sound, 315.15 K [m/s]
m1 = 0.09989 | 999.283 | 997.513 | 995.687 | 1521 | 1530.7 | 1538.9
m1 = 0.1997 | 1003.52 | 1001.69 | 999.928 | 1528 | 1537.5 | 1545.4
m1 = 0.2989 | 1007.74 | 1005.85 | 1004.15 | 1535 | 1544.6 | 1552
m1 = 0.3989 | 1011.99 | 1010.04 | 1008.4 | 1542.2 | 1551.1 | 1559
m1 = 0.5002 | 1016.3 | 1014.29 | 1012.7 | 1549.1 | 1558.1 | 1566
m1 = 0.5982 | 1020.46 | 1018.39 | 1016.87 | 1555.7 | 1564.8 | 1573.1
m1 = 0.6471 | 1022.54 | 1020.44 | 1018.94 | 1559 | 1567.9 | 1576.5
m1 = 0.7007 | 1024.82 | 1022.69 | 1021.22 | 1562.4 | 1571.7 | 1580.1
m1 = 0.7476 | 1026.81 | 1024.65 | 1023.22 | 1565.7 | 1575.1 | 1583.3
m1 = 0.7854 | 1028.42 | 1026.23 | 1024.82 | 1568.4 | 1577.8 | 1585.9

O [water] + C[C@@H](O)[C@H](N)C(=O)O
m2 = 0
Conditions | mass density [kg/m3] | speed of sound [m/s]
305.15 K | 995.038 | 1513.7
310.15 K | 993.328 | 1523.6
315.15 K | 991.439 | 1532.1

N[C@@H](CO)C(=O)O [L-serine] + O
Conditions | mass density, 305.15 K [kg/m3] | mass density, 310.15 K [kg/m3] | mass density, 315.15 K [kg/m3] | speed of sound, 305.15 K [m/s] | speed of sound, 310.15 K [m/s] | speed of sound, 315.15 K [m/s]
m1 = 0.1012 | 999.763 | 997.637 | 995.748 | 1519.7 | 1529.4 | 1537.7
m1 = 0.1997 | 1003.99 | 1001.83 | 999.945 | 1525.5 | 1535.1 | 1543.3
m1 = 0.3 | 1008.2 | 1006.11 | 1004.22 | 1531.1 | 1540.5 | 1548.4
m1 = 0.3986 | 1012.53 | 1010.31 | 1008.42 | 1536.8 | 1546.1 | 1554
m1 = 0.4987 | 1016.75 | 1014.57 | 1012.68 | 1542.2 | 1551.4 | 1559.2
m1 = 0.6008 | 1021.43 | 1018.92 | 1017.03 | 1548 | 1556.9 | 1564.5
m1 = 0.6973 | 1025.53 | 1023.03 | 1021.14 | 1553.3 | 1562.2 | 1569.6
m1 = 0.8 | 1029.74 | 1027.41 | 1025.52 | 1558.8 | 1567.6 | 1575
m1 = 0.9003 | 1033.96 | 1031.68 | 1029.79 | 1564 | 1572.7 | 1579.9
m1 = 0.9963 | 1037.97 | 1035.77 | 1033.88 | 1569.2 | 1577.7 | 1584.9

O [water] + CN(C)C(=N)NC(=N)N.Cl
m2 = 0
Conditions | mass density [kg/m3] | speed of sound [m/s]
305.15 K | 995.038 | 1513.7
310.15 K | 993.328 | 1523.6
315.15 K | 991.439 | 1532.1

O [water] + N[C@@H](CO)C(=O)O
m2 = 0
Conditions | mass density [kg/m3] | speed of sound [m/s]
305.15 K | 995.038 | 1513.7
310.15 K | 993.328 | 1523.6
315.15 K | 991.439 | 1532.1

Reference: the NIST ThermoML archive (doi:10.1016/j.jct.2015.11.020)
